The values that follow come from article PMC10341893, “Motifs in Natural Products as Useful Scaffolds to Obtain Novel Benzo[d]imidazole-Based Cannabinoid Type 2 (CB2) Receptor Agonists” (International Journal of Molecular Sciences, 2023).

Molecules are shown by their SMILES. Read-outs that look alike come from different tables or passages of the source. Some results are limits rather than exact numbers.

Test [1] concerns the target T1, hCB2 receptor (Homo sapiens, UniProt P34972). The test can be described thus: CB2 receptor binding assay ([3H]-CP-55,940 displacement, HEK cell membranes). Also on record: expressed in transfected cells; host or cells: HEK cells. To be noted: for Ki (CB1)/Ki (CB2): selectivity ratio CB2 over CB1. The protocol: (§1) To assess the compound selectivity between CB1 and CB2 receptors, binding constants were determined through a radioligand displacement assay by testing concentration–response curves for compounds 5, 6, 16, 19, and 22. As shown in Figure 4 and summarized in Table 4, three of the tested compounds (5, 19, and 22) presented moderate binding affinity in a low micromolar range to both CB1 and CB2 receptors.
(§2) CB1 and CB2 receptor binding assays were performed exactly as previously described. […] Displacement curves were performed by incubating [^3H]-CP-55 940 (90 min, 30 °C) with increasing concentrations of compounds (10 nM−10 μM). Ki values were calculated by applying the Cheng−Prusoff equation to the IC50 values (obtained by GraphPad, Prism Software 9.5) for the displacement of the bound radioligand by compounds.

The target in test [2] is T1, hCB2 receptor. The test can be described thus: cAMP accumulation assay (forskolin-stimulated, CHO cells expressing hCB2). Format: cell-based. To be noted: for agonist activity at CB2 (cAMP accumulation): recombinant cells expressing CB2 receptors. The method, then: Compounds were further characterized through in vitro functional assays by measuring the variation in forskolin-induced cAMP accumulation (Eurofins Cerep services). The tested compounds diminished the accumulation of cyclic AMP, indicating activity as agonists (Figure 3).
In vitro pharmacology assay for human CB2 agonist effect in CHO cells was performed by Eurofins Cerep (Celle-Lévescault, France). Five compounds were tested at several concentrations for EC50 determination. […] CHO cells stably expressing hCB2 receptor were used to determine agonist effect of compounds, based on the measurement of cAMP level. Assay protocol is adapted from Felder et al..

Test [3] deals with T1, hCB2 receptor. The experiment in a line: Single-dose radioligand displacement assay ([3H]WIN55212-2). Format: binding. Also on record: host or cells: CHO cells. To be noted: membranes from recombinant CHO cells expressing human CB2, duplicate; for Inhibition (%) of [3H]WIN55212-2 specific binding: 10 µM single dose; for inhibition at 10 µM: read-out: Inhibition (%) of [3H]WIN55212-2 specific binding, 10 µM single dose. The method, then:
To assess ligand binding to CB2 receptors, radioligand displacement assay at a single dose (10 μM) was performed in membranes obtained from recombinant CHO cells expressing human CB2 receptors (Eurofins Cerep SA, France). Out of 26 compounds, more than 50% of the molecules presented >50% displacement, while 20% of the compounds (5, 6, 16, 19, 22) presented >80% displacement of radioligand binding at a 10 μM dose. Compounds 5, 6, 16, 19, and 22 were further tested for CB2 receptor activation (agonist activity, see below) and CB2/CB1 selectivity.
All membrane preparations for these studies were generated at Cerep Inc. according to standard protocols. Duplicate determinations were performed for each test compound. Compounds were dissolved in DMSO to generate a stock solution. Radioligand binding methods were adapted from Munro et al..

For a further test, the target named is T2, human recombinant CB1R (Homo sapiens, UniProt P21554).
T2 construct: expressed in transfected cells; host or cells: HEK cells
T2 sequence (P21554 whole entry): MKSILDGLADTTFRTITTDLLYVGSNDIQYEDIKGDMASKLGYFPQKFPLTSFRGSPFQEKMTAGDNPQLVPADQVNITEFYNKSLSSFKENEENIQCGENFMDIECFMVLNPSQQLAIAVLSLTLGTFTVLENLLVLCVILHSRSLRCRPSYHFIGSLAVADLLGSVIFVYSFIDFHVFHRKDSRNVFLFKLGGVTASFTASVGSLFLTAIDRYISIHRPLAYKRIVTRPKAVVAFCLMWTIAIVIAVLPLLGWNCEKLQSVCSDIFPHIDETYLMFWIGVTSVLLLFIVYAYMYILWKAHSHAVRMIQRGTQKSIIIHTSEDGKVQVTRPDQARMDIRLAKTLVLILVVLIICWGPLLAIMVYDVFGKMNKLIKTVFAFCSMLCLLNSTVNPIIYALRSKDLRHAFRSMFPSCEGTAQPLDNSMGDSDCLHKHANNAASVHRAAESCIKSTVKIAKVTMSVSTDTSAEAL
The test can be described thus: CB1 receptor binding assay ([3H]-CP-55,940 displacement, HEK cell membranes). The method, then:
as §1, §2

Another test relates to HEK-293 cells. The test can be described thus: Neutral red uptake assay, HEK-293. Format: cell-based. As to conditions: Homo sapiens, HEK293. The protocol: (§3) Compound 6 was tested through a neutral red uptake assay, and cell viability was measured. Neutral red consists of a cationic dye that accumulates in lysosomes. Uptake of neutral red depends on a viable cell’s capacity to maintain acidic pH in the interior of lysosomes.
(§4) MCF-7 and HEK-293 cell lines were maintained at 37 °C in a humidified atmosphere containing 5% CO2. MCF-7 was grown in Roswell Park Memorial Institute (RPMI) 1640 and HEK-293 was grown in Dulbecco’s modified Eagle medium and Ham’s F-12 medium (DMEM/F12). All media was supplemented with 10% fetal bovine serum, penicillin (100 U/mL), streptomycin ([…]), and non-essential amino acids MEM 1×.
(§5) Cells were seeded in 100 μL of media at a density of 10^4 cells/well in 96-well microtiter plates. Solutions of compounds were previously prepared in DMSO, and 1 μL of the corresponding solution was added to each well. The final volume of each well was adjusted to 200 μL. After 72 h of incubation, culture media were removed, and 100 μL of 10 μg/mL neutral red solution prepared in culture media was added to each well and incubated for 2 h at 37 °C in a humidified atmosphere containing 5% CO2. […] The plate was placed for 15 min in a shaker, and fluorescence was measured using Cytation 5 apparatus (Biotek, Winooski, VT, USA) at 530/645 nm excitation/emission wavelengths.

In the next test the test system is MCF-7 cells. The experiment in a line: Neutral red uptake assay, MCF-7. Format: cell-based. To be noted: Homo sapiens, MCF7, 72 h incubation, triplicate, read-out: IC50 Viability. The method, then: as §3, §4, §5
Where [4] appears, read: [3H]-CP-55,940 displacement, means ± SD of 3 independent experiments in duplicate, read-out: Ki CB2.
Setting [5] is: [3H]-CP-55,940 displacement, means ± SD of 3 independent experiments in duplicate, read-out: Ki CB1.

T1 sequence (P34972 whole entry): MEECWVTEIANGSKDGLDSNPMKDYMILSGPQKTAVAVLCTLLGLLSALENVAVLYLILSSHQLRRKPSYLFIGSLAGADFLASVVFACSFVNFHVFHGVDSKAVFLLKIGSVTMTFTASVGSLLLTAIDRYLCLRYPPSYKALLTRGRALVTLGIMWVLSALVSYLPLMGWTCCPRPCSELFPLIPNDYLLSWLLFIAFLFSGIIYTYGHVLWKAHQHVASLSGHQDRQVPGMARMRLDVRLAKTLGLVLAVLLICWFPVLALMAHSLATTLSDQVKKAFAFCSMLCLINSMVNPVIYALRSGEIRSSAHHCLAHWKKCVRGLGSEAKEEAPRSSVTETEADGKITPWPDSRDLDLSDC

Regarding `COc1cccc(Oc2nc3ccccc3n2Cc2ccccc2)c1` [Compound 22, 1-benzyl-2-(3-methoxyphenoxy)-1H-benzo[d]imidazole], the Ki amounted to 600 ± 520 nM at hCB2 receptor [1] (setting [4]) and 2040 ± 1220 nM at human recombinant CB1R (setting [5]). Moreover, at hCB2 receptor [1], the “Ki (CB1)/Ki (CB2)” value is listed as 3.4. Besides, the “agonist activity at CB2 (cAMP accumulation)” value (“agonist activity at CB2” for short) at hCB2 receptor [2] was “agonist activity was confirmed”. Moreover, the “Inhibition (%) of [3H]WIN55212-2 specific binding” value (from here on “Inhibition (%)”) at hCB2 receptor [3] was 84%. The inhibition at 10 µM on hCB2 receptor [3] was greater than 80%.

Regarding `c1ccc(Cn2c(OC34CC5CC(CC(C5)C3)C4)nc3ccccc32)cc1` [Compound 16, 2-(adamantan-1-yloxy)-1-benzyl-1H-benzo[d]imidazole], the Ki on hCB2 receptor [1] was found to be 630 ± 190 nM. Besides, at hCB2 receptor [2], the half-maximal effective concentration (EC50) stood at 20 nM and the “agonist activity at CB2” value is “agonist activity was confirmed”. Besides, at hCB2 receptor [3], the “Inhibition (%)” value was determined as 86% and the inhibition at 10 µM is greater than 80%. Moreover, the Ki on human recombinant CB1R is greater than 10000 nM.

On to `CCn1c(OC2CC(C)CCC2C(C)C)nc2ccccc21` (centres unmarked) [Compound 6, 1-ethyl-2-((2-isopropyl-5-methylcyclohexyl)oxy)-1H-benzo[d]imidazole], for which the IC50 with HEK-293 cells (HEK-293, 72 h incubation, triplicate, read-out: IC50 Viability) was 30000 nM; in the test with HEK-293 cells (range over HEK-293 and MCF-7 cells, read-out: IC50 of toxicity), 30000 to 38000 nM; with MCF-7 cells, 38000 nM. Further, the Ki at hCB2 receptor [1] (setting [4]) was 440 ± 100 nM; on human recombinant CB1R (setting [5]), greater than 10000 nM. The EC50 at hCB2 receptor [2] (recombinant CHO cells expressing hCB2, duplicate, read-out: EC50, inhibition of forskolin-stimulated cAMP accumulation) was found to be 3.36 nM. The “agonist activity at CB2” value at hCB2 receptor [2] is “agonist activity was confirmed”. Moreover, the “Inhibition (%)” value at hCB2 receptor [3] stood at 89%. On hCB2 receptor [3], the inhibition at 10 µM was greater than 80%.

Turning to `CCn1c(SC23CC4CC(CC(C4)C2)C3)nc2ccccc21` [Compound 15, 2-(adamantan-1-ylthio)-1-ethyl-1H-benzo[d]imidazole], at hCB2 receptor [3], the “Inhibition (%)” value stood at 63%.

Consider `CCCCCCC(C)(C)c1cc(OC)cc(Oc2nc3ccccc3n2Cc2cccc3ccccc23)c1` [Compound 24, 2-(3-methoxy-5-(2-methyloctan-2-yl)phenoxy)-1-(naphthalen-1-ylmethyl)-1H-benzo[d]imidazole], for which the inhibition at 10 µM at hCB2 receptor [3] came out at 32%.

As for `CCn1c(OC/C=C(\C)CCC=C(C)C)nc2ccccc21` [Compound 12, (E)-2-((3,7-dimethylocta-2,6-dien-1-yl)oxy)-1-ethyl-1H-benzo[d]imidazole], the “Inhibition (%)” value at hCB2 receptor [3] is on record as −3%.

Take `c1ccc2c(Cn3c(SC45CC6CC(CC(C6)C4)C5)nc4ccccc43)cccc2c1` [Compound 13, 2-(adamantan-1-ylthio)-1-(naphthalen-1-ylmethyl)-1H-benzo[d]imidazole]: at hCB2 receptor [3], the inhibition at 10 µM came to 30%.

Regarding `COc1ccc(CSc2nc3ccccc3n2Cc2ccccc2)cc1` [Compound 19, 1-benzyl-2-((4-methoxybenzyl)thio)-1H-benzo[d]imidazole], the Ki on hCB2 receptor [1] (setting [4]) is 930 ± 290 nM; on human recombinant CB1R (setting [5]), 1230 ± 880 nM. In addition, the “Ki (CB1)/Ki (CB2)” value on hCB2 receptor [1] is 1.3. Moreover, the “agonist activity at CB2” value at hCB2 receptor [2] is reported as “agonist activity was confirmed”. Further, the “Inhibition (%)” value on hCB2 receptor [3] stood at 88%. For the same compound, the inhibition at 10 µM at hCB2 receptor [3] was greater than 80%.

Consider `CC1CCC(C(C)C)C(Oc2nc3ccccc3n2Cc2ccccc2)C1` (centres unmarked) [Compound 5, 1-benzyl-2-((2-isopropyl-5-methylcyclohexyl)oxy)-1H-benzo[d]imidazole], for which, at hCB2 receptor [1], the Ki was determined as 400 ± 80 nM and the “Ki (CB1)/Ki (CB2)” value was 2.3. Besides, on hCB2 receptor [2], the response was half-maximal at 14 nM (EC50) and the “agonist activity at CB2” value was “agonist activity was confirmed”. For the same compound, on hCB2 receptor [3], the “Inhibition (%)” value amounted to 90% and the inhibition at 10 µM is greater than 80%. Further, the inhibition constant Ki at human recombinant CB1R worked out at 920 ± 1150 nM.
